# Test results published in patent US20260356819A1, “OXOISOINDOLINYL-SUBSTITUTED […] DERIVATIVE AND USE THEREOF” (GLUETACS THERAPEUTICS (SHANGHAI) CO., LTD., priority 2023, published 2026).
# How the values were obtained:
# Assay type in all cases: cell-based
# Conditions in all cases: compounds at 50 nM and 500 nM
# [1] = target: T1, WEE1 (Homo sapiens, UniProt P30291+Q96SW2); assay: Western blot degradation of WEE1 in hPBMCs (24 h)
# T1 construct: The supernatant was aspirated as the extracted total cell protein; endogenous in cells; host or cells: human peripheral blood mononuclear cells (hPBMCs)
# T1 sequence (P30291 whole entry): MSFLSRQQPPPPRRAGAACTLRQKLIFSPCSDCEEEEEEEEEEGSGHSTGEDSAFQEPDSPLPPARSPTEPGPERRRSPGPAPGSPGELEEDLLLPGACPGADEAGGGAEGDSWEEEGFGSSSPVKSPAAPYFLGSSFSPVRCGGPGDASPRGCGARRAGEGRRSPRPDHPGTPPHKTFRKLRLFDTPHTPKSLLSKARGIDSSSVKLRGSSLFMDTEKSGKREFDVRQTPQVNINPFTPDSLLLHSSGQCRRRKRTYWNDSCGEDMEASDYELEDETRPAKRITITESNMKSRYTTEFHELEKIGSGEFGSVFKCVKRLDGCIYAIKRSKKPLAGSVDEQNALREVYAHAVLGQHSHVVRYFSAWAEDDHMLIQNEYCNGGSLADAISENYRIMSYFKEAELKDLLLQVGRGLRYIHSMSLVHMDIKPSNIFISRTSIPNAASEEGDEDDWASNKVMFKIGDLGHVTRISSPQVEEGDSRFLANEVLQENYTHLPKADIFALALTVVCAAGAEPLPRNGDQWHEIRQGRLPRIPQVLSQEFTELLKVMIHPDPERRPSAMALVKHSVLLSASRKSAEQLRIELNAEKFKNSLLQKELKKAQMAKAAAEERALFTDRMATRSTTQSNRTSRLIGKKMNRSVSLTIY
# T1 sequence (Q96SW2 whole entry): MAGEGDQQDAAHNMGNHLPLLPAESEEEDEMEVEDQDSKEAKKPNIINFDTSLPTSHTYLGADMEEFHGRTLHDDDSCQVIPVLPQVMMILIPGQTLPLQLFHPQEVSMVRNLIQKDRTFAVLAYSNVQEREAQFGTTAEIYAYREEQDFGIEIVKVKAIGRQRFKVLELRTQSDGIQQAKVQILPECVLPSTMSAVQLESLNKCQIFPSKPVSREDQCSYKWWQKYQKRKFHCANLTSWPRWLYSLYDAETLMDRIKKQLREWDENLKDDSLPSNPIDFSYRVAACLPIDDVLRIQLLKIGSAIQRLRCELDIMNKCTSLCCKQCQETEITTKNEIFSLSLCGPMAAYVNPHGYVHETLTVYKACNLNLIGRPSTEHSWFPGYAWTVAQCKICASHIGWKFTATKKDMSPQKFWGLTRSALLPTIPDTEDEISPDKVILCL
# T1 sequence (Q16531 whole entry partner): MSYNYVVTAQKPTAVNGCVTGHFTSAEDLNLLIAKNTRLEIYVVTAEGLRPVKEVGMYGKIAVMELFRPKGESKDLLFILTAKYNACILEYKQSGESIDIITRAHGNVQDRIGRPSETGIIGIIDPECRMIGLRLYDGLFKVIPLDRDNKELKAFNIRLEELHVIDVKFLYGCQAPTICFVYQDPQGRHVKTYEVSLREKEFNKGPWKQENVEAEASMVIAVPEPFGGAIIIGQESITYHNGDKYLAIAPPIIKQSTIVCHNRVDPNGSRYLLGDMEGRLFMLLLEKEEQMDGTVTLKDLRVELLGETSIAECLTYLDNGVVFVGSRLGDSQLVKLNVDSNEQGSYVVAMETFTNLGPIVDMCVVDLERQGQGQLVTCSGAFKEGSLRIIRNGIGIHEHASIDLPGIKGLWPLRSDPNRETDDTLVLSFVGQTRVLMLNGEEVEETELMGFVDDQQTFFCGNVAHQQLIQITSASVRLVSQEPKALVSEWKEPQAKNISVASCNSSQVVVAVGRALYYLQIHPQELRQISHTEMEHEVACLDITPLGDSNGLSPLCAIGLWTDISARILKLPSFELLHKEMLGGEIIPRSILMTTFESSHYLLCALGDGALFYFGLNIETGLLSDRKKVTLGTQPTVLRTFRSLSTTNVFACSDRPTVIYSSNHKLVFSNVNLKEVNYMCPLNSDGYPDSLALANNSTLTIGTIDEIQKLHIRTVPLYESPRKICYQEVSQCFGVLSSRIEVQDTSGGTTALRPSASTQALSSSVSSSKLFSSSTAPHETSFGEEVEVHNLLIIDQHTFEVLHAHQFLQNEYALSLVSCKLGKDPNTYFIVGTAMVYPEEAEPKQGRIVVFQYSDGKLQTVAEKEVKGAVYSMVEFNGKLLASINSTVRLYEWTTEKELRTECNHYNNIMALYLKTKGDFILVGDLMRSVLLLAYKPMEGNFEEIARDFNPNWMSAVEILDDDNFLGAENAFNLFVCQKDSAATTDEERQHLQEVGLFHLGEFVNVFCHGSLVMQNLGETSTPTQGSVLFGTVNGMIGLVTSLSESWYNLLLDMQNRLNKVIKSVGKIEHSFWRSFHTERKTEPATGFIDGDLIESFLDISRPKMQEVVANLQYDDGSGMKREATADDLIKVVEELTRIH
# How it was run: (§1)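 In this assay, each compound was incubated with human PBMCs for 24 h at 50 nM and 500 nM. Target levels were measured by Western blot densitometry normalised to an internal control.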
# [2] = target: T2, IKZF1 (Homo sapiens, UniProt Q13422+Q96SW2); assay: Western blot degradation of IKZF1 in hPBMCs (24 h)
# T2 construct: The supernatant was aspirated as the extracted total cell protein; endogenous in cells; host or cells: human peripheral blood mononuclear cells (hPBMCs)
# T2 sequence (Q13422 whole entry): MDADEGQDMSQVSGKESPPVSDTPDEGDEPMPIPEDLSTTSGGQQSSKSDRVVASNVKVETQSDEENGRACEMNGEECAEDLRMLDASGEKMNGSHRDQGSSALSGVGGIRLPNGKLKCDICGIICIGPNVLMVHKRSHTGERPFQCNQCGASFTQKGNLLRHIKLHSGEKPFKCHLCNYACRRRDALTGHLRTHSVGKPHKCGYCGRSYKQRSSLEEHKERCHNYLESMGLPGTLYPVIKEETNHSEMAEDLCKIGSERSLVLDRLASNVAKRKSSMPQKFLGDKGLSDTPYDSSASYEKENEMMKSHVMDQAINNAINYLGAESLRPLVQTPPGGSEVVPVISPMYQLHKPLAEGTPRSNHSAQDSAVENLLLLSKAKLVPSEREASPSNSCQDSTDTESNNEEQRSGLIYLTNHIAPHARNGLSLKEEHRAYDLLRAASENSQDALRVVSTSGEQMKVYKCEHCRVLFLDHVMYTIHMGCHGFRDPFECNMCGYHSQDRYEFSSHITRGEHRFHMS
# T2 sequence (Q96SW2 whole entry): as the sequence (Q96SW2 whole entry) above
# T2 sequence (Q16531 whole entry partner): as the sequence (Q16531 whole entry partner) above
# How it was run: as §1
# [3] = target: T3, IKZF2 (Homo sapiens, UniProt Q96SW2+Q9UKS7); assay: Western blot degradation of IKZF2 in hPBMCs (24 h)
# T3 construct: The supernatant was aspirated as the extracted total cell protein; endogenous in cells; host or cells: human peripheral blood mononuclear cells (hPBMCs)
# How it was run: as §1
# [4] = target: T4, IKZF3 (Homo sapiens, UniProt Q96SW2+Q9UKT9); assay: Western blot degradation of IKZF3 in hPBMCs (24 h)
# T4 construct: The supernatant was aspirated as the extracted total cell protein; endogenous in cells; host or cells: human peripheral blood mononuclear cells (hPBMCs)
# T4 sequence (Q9UKT9 whole entry): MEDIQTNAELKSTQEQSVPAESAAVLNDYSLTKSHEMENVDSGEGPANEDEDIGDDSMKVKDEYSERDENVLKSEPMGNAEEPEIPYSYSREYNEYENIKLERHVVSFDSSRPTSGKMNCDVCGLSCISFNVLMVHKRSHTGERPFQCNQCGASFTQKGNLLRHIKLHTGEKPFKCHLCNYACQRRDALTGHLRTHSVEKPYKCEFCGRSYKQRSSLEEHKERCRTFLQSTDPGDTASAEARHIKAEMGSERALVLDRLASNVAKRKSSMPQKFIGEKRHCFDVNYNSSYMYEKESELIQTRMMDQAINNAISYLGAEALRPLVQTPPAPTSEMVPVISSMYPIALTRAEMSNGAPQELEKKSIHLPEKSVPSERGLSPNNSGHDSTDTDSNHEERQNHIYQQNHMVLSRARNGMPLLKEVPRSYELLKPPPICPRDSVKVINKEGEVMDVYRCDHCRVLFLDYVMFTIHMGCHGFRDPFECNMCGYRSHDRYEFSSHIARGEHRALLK
# T4 sequence (Q96SW2 whole entry): as the sequence (Q96SW2 whole entry) above
# T4 sequence (Q16531 whole entry partner): as the sequence (Q16531 whole entry partner) above
# How it was run: as §1
# [5] = target: T5, CK1α (Homo sapiens, UniProt P48729+Q96SW2); assay: Western blot degradation of CK1α in hPBMCs (24 h)
# T5 construct: The supernatant was aspirated as the extracted total cell protein; endogenous in cells; host or cells: human peripheral blood mononuclear cells (hPBMCs)
# T5 sequence (P48729 whole entry): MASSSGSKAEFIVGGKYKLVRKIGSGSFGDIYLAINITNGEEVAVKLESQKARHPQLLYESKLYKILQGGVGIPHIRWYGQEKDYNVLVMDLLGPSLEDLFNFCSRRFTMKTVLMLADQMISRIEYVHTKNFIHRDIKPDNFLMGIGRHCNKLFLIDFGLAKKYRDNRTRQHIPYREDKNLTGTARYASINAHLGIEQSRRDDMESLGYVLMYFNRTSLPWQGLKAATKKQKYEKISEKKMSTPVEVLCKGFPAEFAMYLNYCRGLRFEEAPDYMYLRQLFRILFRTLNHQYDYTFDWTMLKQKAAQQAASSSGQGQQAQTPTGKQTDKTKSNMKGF
# T5 sequence (Q96SW2 whole entry): as the sequence (Q96SW2 whole entry) above
# T5 sequence (Q16531 whole entry partner): as the sequence (Q16531 whole entry partner) above
# How it was run: as §1
# [6] = target: T6, GSPT1 (Homo sapiens, UniProt P15170+Q96SW2); assay: Western blot degradation of GSPT1 in hPBMCs (24 h)
# T6 construct: The supernatant was aspirated as the extracted total cell protein; endogenous in cells; host or cells: human peripheral blood mononuclear cells (hPBMCs)
# T6 sequence (P15170 whole entry): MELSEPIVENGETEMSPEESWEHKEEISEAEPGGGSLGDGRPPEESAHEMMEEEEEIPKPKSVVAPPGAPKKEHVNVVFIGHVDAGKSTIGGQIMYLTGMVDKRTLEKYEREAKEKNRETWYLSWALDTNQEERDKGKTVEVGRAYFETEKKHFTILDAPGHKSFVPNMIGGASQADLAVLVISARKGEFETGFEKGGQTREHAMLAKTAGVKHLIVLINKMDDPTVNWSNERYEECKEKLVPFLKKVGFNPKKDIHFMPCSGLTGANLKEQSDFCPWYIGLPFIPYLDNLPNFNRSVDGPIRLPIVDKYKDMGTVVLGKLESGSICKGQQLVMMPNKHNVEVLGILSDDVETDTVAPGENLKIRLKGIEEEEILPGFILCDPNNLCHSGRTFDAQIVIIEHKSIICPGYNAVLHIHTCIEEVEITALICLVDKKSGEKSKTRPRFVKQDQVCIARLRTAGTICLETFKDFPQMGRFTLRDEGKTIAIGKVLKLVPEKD
# T6 sequence (Q96SW2 whole entry): as the sequence (Q96SW2 whole entry) above
# T6 sequence (Q16531 whole entry partner): as the sequence (Q16531 whole entry partner) above
# How it was run: as §1
Structure (SMILES),WEE1 substrate protein remaining % [1],IKZF1 substrate protein remaining % [2],IKZF2 substrate protein remaining % [3],IKZF3 substrate protein remaining % [4],CK1α substrate protein remaining % [5],GSPT1 substrate protein remaining % [6]
"O=C1CCN(N2C(=O)c3ccc(CN4CCC(c5cccc(C(F)(F)F)c5)CC4)cc3C2=O)C(=O)N1 [GT-06880, 2-(2,4-dioxotetrahydropyrimidin-1(2H)-yl)-5-((4-(3-(trifluoromethyl)phenyl)piperidin-1-yl)methyl)isoindoline-1,3-dione]",A (0% ≤ substrate protein remaining % ≤80%),B (80%< substrate protein remaining % ≤100%),B (80%< substrate protein remaining % ≤100%),B (80%< substrate protein remaining % ≤100%),B (80%< substrate protein remaining % ≤100%),B (80%< substrate protein remaining % ≤100%)
"Cc1ccc(N2CCN(Cc3ccc4c(c3)CN(N3CCC(=O)NC3=O)C4=O)CC2)c(C)c1 [GT-06882, 1-(5-((4-(2,4-dimethylphenyl)piperazin-1-yl)methyl)-1-oxoisoindolin-2-yl)dihydropyrimidine-2,4(1H,3H)-dione]",A (0% ≤ substrate protein remaining % ≤80%),A (0% ≤ substrate protein remaining % ≤80%),B (80%< substrate protein remaining % ≤100%),B (80%< substrate protein remaining % ≤100%),B (80%< substrate protein remaining % ≤100%),A (0% ≤ substrate protein remaining % ≤80%)
"Cc1ccc(Cl)cc1N1CCN(Cc2ccc3c(c2)CN(N2CCC(=O)NC2=O)C3=O)CC1 [GT-06883, 1-(5-((4-(5-chloro-2-methylphenyl)piperazin-1-yl)methyl)-1-oxoisoindolin-2-yl)dihydropyrimidine-2,4(1H,3H)-dione]",A (0% ≤ substrate protein remaining % ≤80%),A (0% ≤ substrate protein remaining % ≤80%),B (80%< substrate protein remaining % ≤100%),B (80%< substrate protein remaining % ≤100%),B (80%< substrate protein remaining % ≤100%),A (0% ≤ substrate protein remaining % ≤80%)
"O=C1CCN(N2Cc3cc(CN4CCC(c5ccc(Br)cc5)CC4)ccc3C2=O)C(=O)N1 [GT-06886, 1-(5-((4-(4-bromophenyl)piperidin-1-yl)methyl)-1-oxoisoindolin-2-yl)dihydropyrimidine-2,4(1H,3H)-dione]",B (80%< substrate protein remaining % ≤100%),B (80%< substrate protein remaining % ≤100%),A (0% ≤ substrate protein remaining % ≤80%),B (80%< substrate protein remaining % ≤100%),B (80%< substrate protein remaining % ≤100%),A (0% ≤ substrate protein remaining % ≤80%)
"O=C1CCN(N2Cc3cc(CN4CCC(c5ccccc5Cl)CC4)ccc3C2=O)C(=O)N1 [GT-06887, 1-(5-((4-(2-chlorophenyl)piperidin-1-yl)methyl)-1-oxoisoindolin-2-yl)dihydropyrimidine-2,4(1H,3H)-dione]",A (0% ≤ substrate protein remaining % ≤80%),B (80%< substrate protein remaining % ≤100%),A (0% ≤ substrate protein remaining % ≤80%),B (80%< substrate protein remaining % ≤100%),B (80%< substrate protein remaining % ≤100%),A (0% ≤ substrate protein remaining % ≤80%)
"O=C1CCN(N2Cc3cc(CN4CCC(c5ccc(Cl)cc5)CC4)ccc3C2=O)C(=O)N1 [GT-06888, 1-(5-((4-(4-chlorophenyl)piperidin-1-yl)methyl)-1-oxoisoindolin-2-yl)dihydropyrimidine-2,4(1H,3H)-dione]",A (0% ≤ substrate protein remaining % ≤80%),B (80%< substrate protein remaining % ≤100%),A (0% ≤ substrate protein remaining % ≤80%),B (80%< substrate protein remaining % ≤100%),B (80%< substrate protein remaining % ≤100%),A (0% ≤ substrate protein remaining % ≤80%)
"O=C1CCN(N2Cc3cc(CN4CCC(c5ccccc5F)CC4)ccc3C2=O)C(=O)N1 [GT-06889, 1-(5-((4-(2-fluorophenyl)piperidin-1-yl)methyl)-1-oxoisoindolin-2-yl)dihydropyrimidine-2,4(1H,3H)-dione]",A (0% ≤ substrate protein remaining % ≤80%),B (80%< substrate protein remaining % ≤100%),A (0% ≤ substrate protein remaining % ≤80%),B (80%< substrate protein remaining % ≤100%),B (80%< substrate protein remaining % ≤100%),A (0% ≤ substrate protein remaining % ≤80%)
"O=C1CCN(N2Cc3cc(CN4CCC(c5ccc(F)cc5)CC4)ccc3C2=O)C(=O)N1 [GT-06890, 1-(5-((4-(4-fluorophenyl)piperidin-1-yl)methyl)-1-oxoisoindolin-2-yl)dihydropyrimidine-2,4(1H,3H)-dione]",A (0% ≤ substrate protein remaining % ≤80%),B (80%< substrate protein remaining % ≤100%),B (80%< substrate protein remaining % ≤100%),B (80%< substrate protein remaining % ≤100%),B (80%< substrate protein remaining % ≤100%),A (0% ≤ substrate protein remaining % ≤80%)
"O=C1CCN(N2Cc3cc(CN4CCC(c5ccccc5C(F)(F)F)CC4)ccc3C2=O)C(=O)N1 [GT-06891, 1-(1-oxo-5-((4-(2-(trifluoromethyl)phenyl)piperidin-1-yl)methyl)isoindolin-2-yl)dihydropyrimidine-2,4(1H,3H)-dione]",A (0% ≤ substrate protein remaining % ≤80%),B (80%< substrate protein remaining % ≤100%),A (0% ≤ substrate protein remaining % ≤80%),B (80%< substrate protein remaining % ≤100%),B (80%< substrate protein remaining % ≤100%),A (0% ≤ substrate protein remaining % ≤80%)
